Reference: US20240299559A1, “COMPOUNDS THAT MEDIATE PROTEIN DEGRADATION AND METHODS OF USE THEREOF” (Monte Rosa Therapeutics, Inc., priority 2021, published 2024)

Tests used:
CDK2 = target: T1, CDK2 (Homo sapiens, UniProt P24941); assay: CDK2 HiBiT assay (degradation, Dmax); type: cell-based; conditions: HEK293 clonal lines with CRISPR KI HiBiT tag on CDK2, stably expressing LgBiT; 24 hours incubation
T1 construct: HEK293 clonal lines with CRISPR KI HiBiT tag on CDK2 proteins; host or cells: HEK293 clonal line with CRISPR knock-in HiBiT on CDK2, stably expressing LgBiT
Description: HEK293 clonal lines with CRISPR KI HiBiT tag on CDK2 proteins and stably expressing LgBiT protein were obtained from Promega (Madison, WI). Cells were plated at 5000 cells per well using Multiflo (BioTek) in 384-well white solid bottom plates (Corning, 3570BC) in 25 ul volume in DMEM media (DMEM, high glucose, HEPES, no phenol red (ThermoFisher Scientific, 21063029)) containing 10% FBS (Corning, 35-075-CV), 1% Penicillin/Streptomycin (ThermoFisher Scientific, 15140-122). Cells were incubated for 16 hours at 37° C., 5% CO2. 75 nL of a compound at 30 μM were dosed into the plate using an Echo® 650 liquid handler (Labcyte). Cells were incubated at 37° C., 5% CO2 for 24 hours. 5 ul of HiBiT Lysis Reagent (Promega, N3030) is added using Combi Multidrop (ThermoFisher Scientific), plates are incubated for 15′ at 37° C., 5% CO2 and then signal was read on a Pherastar FSX using “LUM plus” optic module.
Analysis was performed in Scinamic (Scinamic, Cambridge, MA). Luminescence response (R) was calculated by the formula: response=100*(S−N)/(P−N) where S is the signal of the well, N and P the mean negative and positive control values respectively of the same plate. The luminescence response was then fitted in Scinamic using a 3-parameter agonist logistic fit (hillslope=1, EC50>0, top/bottom unconstrained).

CRBN-DDB1 = CRBN-DDB1 (Homo sapiens, UniProt Q96SW2); assay: Compound binding to CRBN by HTRF assay; conditions: CRBN-DDB1 2.5 nM, Cy5-Thalidomide 100 nM probe; Ki from geometric mean of IC50 by Cheng-Prustoff transformation
Chain of CRBN-DDB1 (Q96SW2 whole entry): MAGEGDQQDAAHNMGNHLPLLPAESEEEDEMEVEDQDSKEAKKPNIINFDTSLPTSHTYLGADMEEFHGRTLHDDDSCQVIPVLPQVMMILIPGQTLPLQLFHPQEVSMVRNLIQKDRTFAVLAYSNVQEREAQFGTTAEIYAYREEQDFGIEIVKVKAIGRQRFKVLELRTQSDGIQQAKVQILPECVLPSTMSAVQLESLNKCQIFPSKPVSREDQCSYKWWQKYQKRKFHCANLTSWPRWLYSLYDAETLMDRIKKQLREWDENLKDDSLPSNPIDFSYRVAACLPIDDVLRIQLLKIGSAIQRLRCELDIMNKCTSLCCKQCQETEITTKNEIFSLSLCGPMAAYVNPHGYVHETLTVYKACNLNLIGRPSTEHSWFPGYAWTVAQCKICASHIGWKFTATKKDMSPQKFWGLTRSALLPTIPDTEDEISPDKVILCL
Chain of CRBN-DDB1 (Q16531 whole entry partner): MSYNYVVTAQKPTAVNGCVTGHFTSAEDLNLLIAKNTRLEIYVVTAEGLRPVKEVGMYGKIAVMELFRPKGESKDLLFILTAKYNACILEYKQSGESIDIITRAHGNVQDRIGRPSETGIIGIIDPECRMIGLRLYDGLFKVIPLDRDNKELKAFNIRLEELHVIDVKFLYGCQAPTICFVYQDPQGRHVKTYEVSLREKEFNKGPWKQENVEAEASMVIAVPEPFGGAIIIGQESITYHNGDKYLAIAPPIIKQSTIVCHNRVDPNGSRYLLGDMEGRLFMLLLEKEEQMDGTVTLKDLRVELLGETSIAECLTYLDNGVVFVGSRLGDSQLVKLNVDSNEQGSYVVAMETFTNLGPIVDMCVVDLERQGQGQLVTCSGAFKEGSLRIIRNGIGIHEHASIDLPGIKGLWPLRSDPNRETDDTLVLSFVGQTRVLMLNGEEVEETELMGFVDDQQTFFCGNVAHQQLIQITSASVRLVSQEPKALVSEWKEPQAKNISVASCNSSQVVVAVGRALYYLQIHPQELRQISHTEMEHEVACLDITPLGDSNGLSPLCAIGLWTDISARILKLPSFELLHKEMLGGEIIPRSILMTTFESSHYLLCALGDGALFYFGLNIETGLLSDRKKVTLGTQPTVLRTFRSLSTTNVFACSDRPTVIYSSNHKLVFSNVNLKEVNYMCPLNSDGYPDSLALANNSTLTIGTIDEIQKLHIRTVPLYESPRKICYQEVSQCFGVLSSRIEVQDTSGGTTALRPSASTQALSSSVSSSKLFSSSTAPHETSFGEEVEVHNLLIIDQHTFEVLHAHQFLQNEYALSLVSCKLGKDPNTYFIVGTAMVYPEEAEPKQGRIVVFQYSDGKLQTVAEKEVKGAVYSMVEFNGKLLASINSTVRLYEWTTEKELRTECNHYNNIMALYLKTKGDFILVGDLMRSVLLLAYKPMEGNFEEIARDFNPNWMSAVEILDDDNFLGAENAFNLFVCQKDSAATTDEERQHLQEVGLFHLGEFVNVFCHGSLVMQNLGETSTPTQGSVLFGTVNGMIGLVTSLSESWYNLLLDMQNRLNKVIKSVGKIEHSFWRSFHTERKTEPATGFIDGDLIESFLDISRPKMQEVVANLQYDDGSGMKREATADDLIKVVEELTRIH
Description: Compound activity was monitored in a Homogenous Time-Resolved Fluorescence (HTRF) assay using 1-[5-({2-[2-(2-{[2-(2,6-dioxopiperidin-3-yl)-1,3-dioxo-2,3-dihydro-1H-isoindol-4-yl]oxy}acetamido)ethoxy]ethyl}carbamoyl)pentyl]-3,3-dimethyl-2-[(1E,3E)-5-[(2E)-1,3,3-trimethyl-5-sulfo-2,3-dihydro-1H-indol-2-ylidene]penta-1,3-dien-1-yl]-3H-indol-1-ium-5-sulfonate as a fluorescent probe. Biochemical assays were conducted in Greiner white 384 well HiBase plates (Cat. No 784075-25) in 10 μL total volume. A one pot detection solution of CRBN-DDB1 (2.5 nM), Anti-His Terbium Cryptate Gold (1×, PerkinElmer Cat. #: 61HI2TLB), and Cy5-Thalidomide (100 nM, Tenova Cat.: T52461) was prepared in 20 mM HEPES, 20 mM NaCl, 0.2 mM TCEP, 0.2 mM EDTA, and 0.005% Tween20 was dispensed to each assay plate. Compounds were stored in dry, ambient temperatures at 10 mM. A 10-point, 1:3 dilution series was prepared from 10 mM stock concentrations in Echo-compatible LDV plates. 10 nL of each compound dilution series was dispensed into assays wells using an Echo 650 (Labcyte inc. USA). 10 nL of 10 mM Lenalidomide was transferred into the active-control wells for the assay and 10 nL of DMSO was transferred into the neutral-control wells. The assay was then allowed to incubate for 30 min at ambient temperature after transferring compound. Plate measurements were taken on a Pherastar FSX (BMG Labtech, Germany) using the HTRF Red filter (Ex. 337 nm, em1:620 nm, em2:665 nm) (Flashes: 50, Integration time: 60-400 us, Z-height: 10 mm, Ratio-multipler: 10,000). The HTRF signal was then subsequently normalized to the neutral and active controls. Analysis and IC50 values were derived using KNIME analytics (KNIME Zurich) transformation and fitting within Collaborative Drug Discovery (Collaborative Drug Discovery USA). Ki was derived from the geometric mean of the IC50 values using the Cheng-Prustoff transformation.

Compound: O=C1CCC(N2Cc3ccc(CNC(=O)OCc4ccc(CC(F)(F)F)cc4)cc3C2=O)C(=O)N1 (centres unmarked) [Compound 42, [4-(2,2,2-trifluoroethyl)phenyl]methyl N-{[2-(2,6-dioxopiperidin-3-yl)-3-oxo-2,3-dihydro-1H-isoindol-5-yl]methyl}carbamate]
- Dmax (CDK2): 10 to 50%
- Ki (CRBN-DDB1): ≤ 100 nM

Compound: O=C1CCC(N2Cc3ccc(CNC(=O)OCCc4ccccc4)cc3C2=O)C(=O)N1 (centres unmarked) [Compound 22, 2-phenylethyl N-{[2-(2,6-dioxopiperidin-3-yl)-3-oxo-2,3-dihydro-1H-isoindol-5-yl]methyl}carbamate]
- Dmax (CDK2): 10 to 50%
- Ki (CRBN-DDB1): ≤ 100 nM

Compound: CC[C@H](Cc1ccccc1)OC(=O)NCc1ccc2c(c1)C(=O)N(C1CCC(=O)NC1=O)C2 (stereo partly drawn) [Compound 68, (2R)-1-phenylbutan-2-yl N-{[2-(2,6-dioxopiperidin-3-yl)-3-oxo-2,3-dihydro-1H-isoindol-5-yl]methyl}carbamate]
- Dmax (CDK2): ≤ 10%
- Ki (CRBN-DDB1): 100 to 1000 nM

Compound: CC(C)(c1ccc(COC(=O)NCc2ccc3c(c2)C(=O)N(C2CCC(=O)NC2=O)C3)cc1)C(F)(F)F (centres unmarked) [Compound 63, [4-(1,1,1-trifluoro-2-methylpropan-2-yl)phenyl]methyl N-{[2-(2,6-dioxopiperidin-3-yl)-3-oxo-2,3-dihydro-1H-isoindol-5-yl]methyl}carbamate]
- Dmax (CDK2): 10 to 50%
- Ki (CRBN-DDB1): ≤ 100 nM

Compound: CCCc1ccc(COC(=O)NCc2ccc3c(c2)C(=O)N(C2CCC(=O)NC2=O)C3)cc1 (centres unmarked) [Compound 43, (4-propylphenyl)methyl N-{[2-(2,6-dioxopiperidin-3-yl)-3-oxo-2,3-dihydro-1H-isoindol-5-yl]methyl}carbamate]
- Dmax (CDK2): 10 to 50%
- Ki (CRBN-DDB1): ≤ 100 nM

Compound: O=C1CCC(N2Cc3ccc(CNC(=O)OCc4ccc(OC5CCOCC5)nc4)cc3C2=O)C(=O)N1 (centres unmarked) [Compound 65, [6-(oxan-4-yloxy)pyridin-3-yl]methyl N-{[2-(2,6-dioxopiperidin-3-yl)-3-oxo-2,3-dihydro-1H-isoindol-5-yl]methyl}carbamate]
- Dmax (CDK2): 10 to 50%
- Ki (CRBN-DDB1): ≤ 100 nM

Compound: Cc1ccc(COC(=O)NCc2ccc3c(c2)C(=O)N(C2CCC(=O)NC2=O)C3)cc1 (centres unmarked) [Compound 29, (4-methylphenyl)methyl N-{[2-(2,6-dioxopiperidin-3-yl)-3-oxo-2,3-dihydro-1H-isoindol-5-yl]methyl}carbamate]
- Dmax (CDK2): ≤ 10%
- Ki (CRBN-DDB1): ≤ 100 nM

Compound: Cc1ccc(COC(=O)NCc2ccc3c(c2)C(=O)N(C2CCC(=O)NC2=O)C3)c(C)c1 (centres unmarked) [Compound 30, (2,4-dimethylphenyl)methyl N-{[2-(2,6-dioxopiperidin-3-yl)-3-oxo-2,3-dihydro-1H-isoindol-5-yl]methyl}carbamate]
- Dmax (CDK2): 10 to 50%
- Ki (CRBN-DDB1): 100 to 1000 nM

Compound: O=C1CCC(N2Cc3c(Cl)cc(CNc4nnc(-c5ccc(OC(F)(F)F)cc5)o4)cc3C2=O)C(=O)N1 (centres unmarked) [Compound 73, 3-(4-chloro-1-oxo-6-(((5-(4-(trifluoromethoxy)phenyl)-1,3,4-oxadiazol-2-yl)amino)methyl)isoindolin-2-yl)piperidine-2,6-dione]
- Dmax (CDK2): 50 to 80%
- Ki (CRBN-DDB1): ≤ 100 nM

Compound: O=C1CCC(N2Cc3ccc(CNC(=O)OCc4ccccc4)cc3C2=O)C(=O)N1 (centres unmarked) [Compound 20, benzyl ((2-(2,6-dioxopiperidin-3-yl)-3-oxoisoindolin-5-yl)methyl)carbamate]
- Dmax (CDK2): 10 to 50%
- Ki (CRBN-DDB1): 100 to 1000 nM

Compound: O=C1CCC(N2Cc3ccc(CNC(=O)OCc4ccc(C(F)(F)F)nc4)cc3C2=O)C(=O)N1 (centres unmarked) [Compound 66, [6-(trifluoromethyl)pyridin-3-yl]methyl N-{[2-(2,6-dioxopiperidin-3-yl)-3-oxo-2,3-dihydro-1H-isoindol-5-yl]methyl}carbamate]
- Dmax (CDK2): 10 to 50%
- Ki (CRBN-DDB1): ≤ 100 nM

Compound: CC(C)c1ccc(COC(=O)NCc2ccc3c(c2)C(=O)N(C2CCC(=O)NC2=O)C3)cc1 (centres unmarked) [Compound 60, [4-(propan-2-yl)phenyl]methyl N-{[2-(2,6-dioxopiperidin-3-yl)-3-oxo-2,3-dihydro-1H-isoindol-5-yl]methyl}carbamate]
- Dmax (CDK2): 10 to 50%
- Ki (CRBN-DDB1): ≤ 100 nM

Compound: O=C(CCc1cccc(-c2ccc(F)cc2)c1)NCc1ccc2c(c1)C(=O)N(C1CCC(=O)NC1=O)C2 (centres unmarked) [Compound 21, N-((2-(2,6-dioxopiperidin-3-yl)-3-oxoisoindolin-5-yl)methyl)-3-(4′-fluoro-[1,1′-biphenyl]-3-yl)propanamide]
- Dmax (CDK2): ≤ 10%
- Ki (CRBN-DDB1): ≤ 100 nM

Compound: O=C1CCC(N2Cc3ccc(CNC(=O)OCc4ccc(C5CCCC5)cc4)cc3C2=O)C(=O)N1 (centres unmarked) [Compound 37, (4-cyclopentylphenyl)methyl N-{[2-(2,6-dioxopiperidin-3-yl)-3-oxo-2,3-dihydro-1H-isoindol-5-yl]methyl}carbamate]
- Dmax (CDK2): 10 to 50%
- Ki (CRBN-DDB1): ≤ 100 nM

Compound: O=C1CCC(N2Cc3ccc(CNC(=O)OCc4cccc(-c5ccc(Cl)cc5)c4)cc3C2=O)C(=O)N1 (centres unmarked) [Compound 8, (4′-chloro-[1,1′-biphenyl]-3-yl)methyl ((2-(2,6-dioxopiperidin-3-yl)-3-oxoisoindolin-5-yl)methyl)carbamate]
- Dmax (CDK2): 10 to 50%
- Ki (CRBN-DDB1): 100 to 1000 nM

Compound: O=C1CCC(N2Cc3ccc(CNC(=O)OCc4ccc(OC(F)F)cc4)cc3C2=O)C(=O)N1 (centres unmarked) [Compound 33, [4-(difluoromethoxy)phenyl]methyl N-{[2-(2,6-dioxopiperidin-3-yl)-3-oxo-2,3-dihydro-1H-isoindol-5-yl]methyl}carbamate]
- Dmax (CDK2): 10 to 50%
- Ki (CRBN-DDB1): ≤ 100 nM

Compound: O=C1CCC(N2Cc3ccc(CNC(=O)OCc4ccc(OC5CCOCC5)cc4)cc3C2=O)C(=O)N1 (centres unmarked) [Compound 3, 4-((tetrahydro-2H-pyran-4-yl)oxy)benzyl((2-(2,6-dioxopiperidin-3-yl)-3-oxoisoindolin-5-yl)methyl)carbamate]
- Dmax (CDK2): 10 to 50%
- Ki (CRBN-DDB1): 100 to 1000 nM

Compound: O=C1CCC(N2Cc3ccc(CNC(=O)OCc4cccc([N+](=O)[O-])c4)cc3C2=O)C(=O)N1 (centres unmarked) [Compound 32, (3-nitrophenyl)methyl N-{[2-(2,6-dioxopiperidin-3-yl)-3-oxo-2,3-dihydro-1H-isoindol-5-yl]methyl}carbamate]
- Dmax (CDK2): ≤ 10%
- Ki (CRBN-DDB1): 100 to 1000 nM

Compound: O=C1CCC(N2Cc3ccc(CNC(=O)OCc4ccc([C@H]5CCC[C@@H]5O)cc4)cc3C2=O)C(=O)N1 (stereo partly drawn) [Compound 19, 4-((1R, 2S)-2-hydroxycyclopentyl) benzyl ((2-(2,6-dioxopiperidin-3-yl)-3-oxoisoindolin-5-yl)methyl)carbamate]
- Dmax (CDK2): 10 to 50%
- Ki (CRBN-DDB1): 100 to 1000 nM

Compound: O=C1CCC(N2Cc3ccc(CNc4nnc(-c5ccc(OC(F)(F)F)cc5)o4)cc3C2=O)C(=O)N1 (centres unmarked) [Compound 71, 3-(1-oxo-6-(((5-(4-(trifluoromethoxy)phenyl)-1,3,4-oxadiazol-2-yl)amino)methyl)isoindolin-2-yl)piperidine-2,6-dione]
- Dmax (CDK2): 50 to 80%
- Ki (CRBN-DDB1): 100 to 1000 nM

Compound: O=C1CCC(N2Cc3ccc(CNC(=O)OCCCc4ccccc4)cc3C2=O)C(=O)N1 (centres unmarked) [Compound 23, 3-phenylpropyl N-{[2-(2,6-dioxopiperidin-3-yl)-3-oxo-2,3-dihydro-1H-isoindol-5-yl]methyl}carbamate]
- Dmax (CDK2): 10 to 50%
- Ki (CRBN-DDB1): 100 to 1000 nM

Compound: O=C1CCC(N2Cc3ccc(CNC(=O)OCc4ccc(C(F)(F)F)cc4)cc3C2=O)C(=O)N1 (centres unmarked) [Compound 59, [4-(trifluoromethyl)phenyl]methyl N-{[2-(2,6-dioxopiperidin-3-yl)-3-oxo-2,3-dihydro-1H-isoindol-5-yl]methyl}carbamate]
- Dmax (CDK2): 10 to 50%
- Ki (CRBN-DDB1): 100 to 1000 nM
